Measured values reported in PMC6428840, “The Arabidopsis H3K27me3 demethylase JUMONJI 13 is a temperature and photoperiod dependent flowering repressor” (Nature Communications, 2019).

Biological target: T1, JMJ13CD (JMJ13 catalytic domain) (Arabidopsis thaliana, UniProt F4KIX0)
T1 construct: catalytic domain, residues 90-578 (jumonji, helical and C4HCHC zinc finger domains); His6-SUMO tag removed by ulp1; E. coli BL21(DE3) RIL; Ni2+ in place of Fe2+
Assay: X-ray crystal structure, […] Å
Type: binding
Conditions: JMJ13-NOG crystals soaked with 10 mM H3(24-35)K27me3 peptide; Ni2+ in place of Fe2+; pH 6.5; active site, α-KG analog

T1 sequence (F4KIX0 90-578): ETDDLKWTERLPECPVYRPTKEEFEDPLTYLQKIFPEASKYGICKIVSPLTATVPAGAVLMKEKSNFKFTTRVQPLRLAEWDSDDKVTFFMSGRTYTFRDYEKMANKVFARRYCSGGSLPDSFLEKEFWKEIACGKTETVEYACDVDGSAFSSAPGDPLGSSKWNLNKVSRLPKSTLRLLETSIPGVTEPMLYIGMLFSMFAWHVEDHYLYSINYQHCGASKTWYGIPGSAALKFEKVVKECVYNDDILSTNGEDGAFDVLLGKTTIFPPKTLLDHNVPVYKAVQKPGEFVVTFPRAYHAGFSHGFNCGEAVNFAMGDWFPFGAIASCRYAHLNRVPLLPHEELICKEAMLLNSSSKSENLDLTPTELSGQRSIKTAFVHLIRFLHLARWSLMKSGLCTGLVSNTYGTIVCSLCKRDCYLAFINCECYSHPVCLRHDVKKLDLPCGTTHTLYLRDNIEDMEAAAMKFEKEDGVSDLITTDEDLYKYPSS

O=C(O)CNC(=O)C(=O)O [NOG, N-oxalylglycine]
X-ray crystal structure, 2.6 Å: in complex with the α-KG analog N-oxalylglycine (NOG) and an H3K27me3 peptide
